Results: PMC13586308, “Cell type–selective targeting by heterobifunctional protein binders via in-cell enrichment” (Nature Communications, 2026)
Read-outs that look alike come from different tables or passages of the source.

Experiments:
[1] = molecular target: T1, His-BRD4^BD2 + eGFP-FKBP12 (Homo sapiens, UniProt O60885+P62942); test: HTRF ternary complex formation BRD4 BD2 + EGFP-FKBP12; assay type: binding; details: eGFP-FKBP12 5 µM, His-BRD4^BD2 100 nM; read-out: HTRF BRD4^BD2 + GFP-FKBP12 Kd
T1 construct: the His6-tag of the respective BD1 or BD2 domain of BRD4 and EGFP-labeled FKBP12

[2] = molecular target: T2, BRD3BD1 (Homo sapiens, UniProt Q15059); test: competitive FP assay, BRD3 BD1 -/+ FKBP12; assay type: binding
T2 construct: to the isolated BD1 and BD2 domains of BRD2, BRD3 and BRD4
T2 sequence (Q15059 34-140 limits assumed): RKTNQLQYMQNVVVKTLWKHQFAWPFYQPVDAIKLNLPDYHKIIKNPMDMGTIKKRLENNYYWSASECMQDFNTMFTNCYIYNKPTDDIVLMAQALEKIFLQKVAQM

[3] = molecular target: T3, BRD4^BD2 (Homo sapiens, UniProt O60885); test: competitive fluorescence polarization assay, BRD4 BD2 -/+ presenter protein; assay type: binding
T3 construct: to the isolated BD1 and BD2 domains of BRD2, BRD3 and BRD4

[4] = molecular target: T4, BRD4 (Homo sapiens, UniProt O60885); test: NanoBRET BRD4, transient BRD4-NanoLuc in HEK293T cells; assay type: cell-based; details: intact HEK293 cells
T4 construct: full-length BRD4 fused to NanoLuc at N terminus; expressed in transfected cells; host or cells: HEK293T
Experimental: The NanoBRET assay was performed as described previously[26],[39]. To study BRD4 engagement, we employed two models: cells stably expressing BRD4-NanoLuc and cells with transient BRD4-NanoLuc expression. For stable cell lines, the coding sequence of human BRD4 (Isoform B) was fused in-frame to NanoLuc luciferase under the control of the human ubiquitin C (UbC) promoter, with left and right homology arms targeting the AAVS1 locus in intron 1 of the PPP1R12C gene to facilitate genomic integration. PC3 prostate cancer cells were transfected with this construct and vectors expressing Cas9 and an sgRNA targeting the AAVS1 locus using Lipofectamine 3000 (Invitrogen). Successful integrands were selected with blasticidin. Expression of the fusion protein was confirmed by western blot. For transient experiments, full-length BRD4 fused to NanoLuc at N terminus, was cloned into an expression plasmid and transfected into HEK293T cells using FuGENE HD (Promega, E2312), with protein expression allowed for 20 h. Serially diluted inhibitors and BRD Tracer-02 (Promega, TracerDB ID: T000022) at the Tracer KD concentration (from TracerDB)[40] were dispensed into white 384-well plates (Greiner 781207) using an ECHO 550 acoustic dispenser (Labcyte). The cells were trypsinized, resuspended in Opti-MEM without phenol red (Life Technologies), and seeded at 2 × 10^5 cells/mL. After equilibration for 2 h at 37 °C/5% CO₂ following compound treatment, the NanoBRET® NanoGlo Substrate + Extracellular NanoLuc® Inhibitor (Promega, N2162) was added according to the manufacturer’s protocol, and filtered luminescence was measured on a PHERAstar plate reader (BMG Labtech) using a donor (450 nm BP) and acceptor (610 nm LP) filter pair. Competitive displacement data were analyzed using GraphPad Prism 9 with a normalized 3-parameter curve fit: Y = 100/(1 + 10^(X − log IC₅₀)). For BRET measurements after FKBP12 knockdown in stably expressing BRD4 Nano-Luc reporter cell line, 10 nL/per well of the FKBP12 PROTAC was pipetted to each well using Labcyte to achieve the final concentration of 200 nM and the plated cells were incubated over-night at 37 °C and 5% CO2. BRET measurements were performed as outlined above.

[5] = molecular target: T5, BRD2BD1 (Homo sapiens, UniProt P25440); test: competitive FP assay, BRD2 BD1 -/+ FKBP12; assay type: binding
T5 construct: to the isolated BD1 and BD2 domains of BRD2, BRD3 and BRD4
T5 sequence (P25440 74-180 limits assumed): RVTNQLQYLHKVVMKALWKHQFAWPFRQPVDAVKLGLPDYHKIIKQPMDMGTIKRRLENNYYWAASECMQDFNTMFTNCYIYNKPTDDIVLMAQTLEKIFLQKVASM

[6] = molecular target: BRD4 43-463 Y97A (Homo sapiens, UniProt O60885, Y97A); test: competitive FP assay, BRD4 tandem construct Y97A; assay type: binding
[7] = system: BRD4 43-463 Y97A; test: competitive FP assay, BRD4 tandem construct Y97A; assay type: binding
[8] = molecular target: T6, BRD3BD2 (Homo sapiens, UniProt Q15059); test: competitive FP assay, BRD3 BD2 -/+ FKBP12; assay type: binding
T6 construct: to the isolated BD1 and BD2 domains of BRD2, BRD3 and BRD4
T6 sequence (Q15059 306-415 limits assumed): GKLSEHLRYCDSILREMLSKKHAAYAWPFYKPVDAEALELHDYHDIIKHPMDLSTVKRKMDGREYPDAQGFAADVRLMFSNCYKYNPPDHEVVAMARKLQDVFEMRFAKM

[9] = system: MV4-11 cells; test: CellTiter-Glo cell viability, MV4-11; assay type: cell-based, human; details: Homo sapiens, MV4-11, 120 h; five days, without FKBP12 PROTAC; read-out: Cell toxicity (MV4-11) - FKBP12 PROTAC IC50
[10] = molecular target: T7, FKBP12 (Homo sapiens, UniProt P62942); test: NanoBRET FKBP12 in intact HEK293 cells; assay type: cell-based
[11] = molecular target: T8, BRD4^BD1 (Homo sapiens, UniProt O60885); test: competitive fluorescence polarization assay, BRD4 BD1 -/+ presenter protein; assay type: binding
T8 construct: to the isolated BD1 and BD2 domains of BRD2, BRD3 and BRD4

[12] = molecular target: BRD4 43-463 Y390A (Homo sapiens, UniProt O60885, Y390A); test: competitive FP assay, BRD4 tandem construct Y390A; assay type: binding
[13] = system: BRD4 43-463 Y390A; test: competitive FP assay, BRD4 tandem construct Y390A; assay type: binding
[14] = molecular target: BRD4 43-463 (Homo sapiens, UniProt O60885); test: competitive FP assay, BRD4 tandem bromo domain construct; assay type: binding
[15] = molecular target: BRD2BD2 (Homo sapiens, UniProt P25440); test: competitive FP assay, BRD2 BD2 -/+ FKBP12; assay type: binding
Chain of BRD2BD2 (P25440 344-453 limits assumed): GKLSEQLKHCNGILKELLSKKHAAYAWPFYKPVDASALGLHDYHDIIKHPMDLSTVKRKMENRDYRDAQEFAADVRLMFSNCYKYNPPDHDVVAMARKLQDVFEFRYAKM

[16] = molecular target: T7, FKBP12; test: competitive fluorescence polarization assay, binding to FKBP12; details: competitive FP assay
[17] = molecular target: T9, His-BRD4^BD1 + eGFP-FKBP12 (Homo sapiens, UniProt O60885+P62942); test: HTRF ternary complex formation BRD4 BD1 + EGFP-FKBP12; assay type: binding; details: eGFP-FKBP12 5 µM, His-BRD4^BD1 100 nM; read-out: HTRF BRD4^BD1 + GFP-FKBP12 Kd
T9 construct: the His6-tag of the respective BD1 or BD2 domain of BRD4 and EGFP-labeled FKBP12

[18] = ratio of binding in absence or presence of FKBP12

Cc1sc2c(c1C)C(c1ccc(Cl)cc1)=NC(CC(=O)NCCOCCn1cc(COCC3CN(Cc4ccccn4)C(=O)C4CCCC3N4S(=O)(=O)c3cc(Cl)cc(Cl)c3)nn1)c1nnc(C)n1-2 (centres unmarked) [a1d]
Kd [1]: 0.026 ± 0.006 µM | α BRD3BD1 [2]: 7.4 | Kd ([2]; 15 µM FKBP12, read-out: Binding to BRD3BD1 + FKBP12 Kd): 0.023 ± 0.005 µM | Kd ([2]; absence of FKBP12, read-out: Binding to BRD3BD1 - FKBP12 Kd): 0.17 ± 0.027 µM | Kd ([3]; 15 µM FKBP51FK1, read-out: Binding to BRD4BD2 + FKBP51FK1 Kd): 0.47 ± 0.08 µM | Kd ([3]; absence of FKBP12, 2 nM JQ1-FL tracer, read-out: Binding to BRD4^BD2 - FKBP12 Kd): 0.32 ± 0.05 µM | Kd ([3]; absence of FKBP51FK1 (SI Table 3), read-out: Binding to BRD4BD2 - FKBP51FK1 Kd): 0.18 ± 0.03 µM | Kd ([3]; presence of 15 µM FKBP12, read-out: Binding to BRD4^BD2 + FKBP12 Kd (converted)): 0.07 µM | α BRD4^BD2 (binding cooperativity factor) [3, 18]: 4.5 | IC50 [4]: 0.82 µM | α BRD2BD1 [5]: 7.2 | Kd ([5]; 15 µM FKBP12, read-out: Binding to BRD2BD1 + FKBP12 Kd): 0.036 ± 0.009 µM | Kd ([5]; absence of FKBP12, read-out: Binding to BRD2BD1 - FKBP12 Kd): 0.26 ± 0.06 µM | Kd ([6]; Binding to BRD4 43-463 Y97A + FKBP12 Kd, 15 µM FKBP12): 0.059 ± 0.005 µM | Kd ([6]; Binding to BRD4 43-463 Y97A - FKBP12 Kd, absence of FKBP12): 0.13 ± 0.016 µM | α BRD4 43-463 Y97A [7]: 2.2 | α BRD3BD2 [8]: 1.0 | Kd ([8]; 15 µM FKBP12, read-out: Binding to BRD3BD2 + FKBP12 Kd): 0.14 ± 0.03 µM | Kd ([8]; absence of FKBP12, read-out: Binding to BRD3BD2 - FKBP12 Kd): 0.15 ± 0.03 µM | IC50 [9]: 0.0017 µM | IC50 [10]: 0.014 µM | Kd ([11]; 15 µM FKBP51FK1, read-out: Binding to BRD4BD1 + FKBP51FK1 Kd): 0.5 ± 0.09 µM | Kd ([11]; absence of FKBP12, 2 nM JQ1-FL tracer, read-out: Binding to BRD4^BD1 - FKBP12 Kd): 0.45 ± 0.07 µM | Kd ([11]; absence of FKBP51FK1 (SI Table 3), read-out: Binding to BRD4BD1 - FKBP51FK1 Kd): 0.3 ± 0.05 µM | Kd ([11]; presence of 15 µM FKBP12, read-out: Binding to BRD4^BD1 + FKBP12 Kd (converted)): 0.025 µM | α BRD4^BD1 (binding cooperativity factor) [11, 18]: 18 | Kd ([11]; values quoted in rebuttal letter (earlier version of Tab. 1), read-out: binding to BRD4BD1 + FKBP12): 0.026 µM | Kd ([12]; Binding to BRD4 43-463 Y390A + FKBP12 Kd, 15 µM FKBP12): 0.018 ± 0.002 µM | Kd ([12]; absence of FKBP12): 0.183 ± 0.013 µM | α BRD4 43-463 Y390A [13]: 10 | α BRD4 43-463 [14]: 6.7 | Kd ([14]; Binding to BRD4 43-463 + FKBP12 Kd, 15 µM FKBP12): 0.026 ± 0.003 µM | Kd ([14]; Binding to BRD4 43-463 - FKBP12 Kd, absence of FKBP12): 0.175 ± 0.017 µM | α BRD2BD2 [15]: 2.5 | Kd ([15]; 15 µM FKBP12, read-out: Binding to BRD2BD2 + FKBP12 Kd): 0.075 ± 0.02 µM | Kd ([15]; absence of FKBP12, read-out: Binding to BRD2BD2 - FKBP12 Kd): 0.19 ± 0.05 µM | Kd [16]: 0.001 µM | Kd [17]: 0.009 ± 0.003 µM
